Legend:
A427 cells = test: ZN-c3 dose response, percent cell density (cell titer glow), PPP2R1A siRNA vs scrambled control; format: cell-based; conditions: Homo sapiens, A-427, 72 h
Experimental: FIG. 1 depicts the percent cell density of A427 (a first non-small cell lung cancer cell line) cells after treatment with a 10-point dose response of ZN-c3 for 72 hours, comparing cells transfected with siRNA to PPP2R1A against those transfected with a scrambled control siRNA. Percent cell density is calculated using cell titer glow analysis. PPP2R1A siRNA transfected cells have approximately 3.5-fold increase in sensitivity to ZN-c3 (TABLE 1).
The effect of PPP2R1A knockdown on influencing cancer cell susceptibility to ZN-c3 was evaluated. Various cancer cell lines were transfected with PPP2R1A siRNA or control scrambled siRNA and the cells were treated with a 10 point dose response of ZN-c3 for 72 hours. Percent cell density was calculated using cell titer glow analysis. The PPP2R1A siRNA targeted the following bases Chr.19: 52189802-52226425. SiRNA transfection was started 48 hours prior to treatment with ZN-c3. […]
A first non-small cell lung cancer cell line A427 was treated with PPP2R1A siRNA or control siRNA and transfected cells were assessed for sensitivity to ZN-c3 by measurement of reduction in percent cell density (FIG. 1). PPP2R1A siRNA mediated knockdown of PPP2R1A was evaluated by comparison of PPP2R1A expression in conditions treated with siCTRL and siPPPR12A (FIG. 2).

[1] = system: HEC-59 endometrial cancer cells; test: Percent inhibition of cell growth, ZN-c3, LB-100 or ZN-c3+LB-100 (cell titer glow); format: cell-based; conditions: HEC-59 (PPP2R1A wild-type), 72 hours; ZN-c3 400 nM, LB-100 1 μM
Experimental: FIG. 18 depicts the percent inhibition of cell growth in HEC-59 endometrial cancer cells after treatment with ZN-c3 alone, the PP2A catalytic inhibitor LB-100 alone, or the combination of ZN-c3+LB-100. HEC-59 cell line is PPP2R1A wild-type. […] Percent inhibition is calculated using cell titer glow analysis.
Various cancer cell lines were treated with ZN-c3 alone, the PP2A catalytic inhibitor LB-100 alone, or the combination of ZN-c3+LB-100. As in Example 1 and Example 2, the treatment period was 72 hours and percent inhibition was calculated using cell titer glow analysis.
The endometrial cancer cell line HEC-59 was assessed for sensitivity to ZN-c3 alone, LB-100 alone, or the combination of ZN-c3+LB-100 (FIG. 18).

C=CCn1c(=O)c2cnc(Nc3ccc(N4CCN(C)CC4)cc3)nc2n1-c1ccc2c(n1)[C@@](O)(CC)CC2 [ZN-c3, (R)-2-allyl-1-(7-ethyl-7-hydroxy-6,7-dihydro-5H-cyclopenta[b]pyridin-2-yl)-6-((4-(4-methylpiperazin-1-yl)phenyl)amino)-1,2-dihydro-3H-pyrazolo[3,4-d]pyrimidin-3-one]
EC50 (A427 cells; siCTRL): 196 nM | EC50 (A427 cells; siPPP2R1A): 55.4 nM | percent inhibition of cell growth [1]: approximately 25%

From patent US20250208149A1, “WEE1 COMPOUND FOR TREATING UTERINE SEROUS CARCINOMA” (Recurium IP Holdings, LLC, priority 2022, published 2025)
